Measured values reported in patent US11654196B2, “Dosing regimens for echinocandin class compounds” (priority 2012, dated 2023).
Read-outs that look alike come from different tables or passages of the source. *1 amine or outer side, *2 acyl side, *3 side chain or, on linkers, in order; H or OH if unused. Where a SMILES comes first, the peptide text is derived from it. Bridges are numbered along the chain shown (N, C = ends). [ ]: non-standard residue; d: D form. The star is where a group is joined. pTerphenylCO(4''-OnC5H11) = CCCCCOc1ccc(-c2ccc(-c3ccc(C(=O)*)cc3)cc2)cc1; Orn(4R-OH,5R-OH) = O=C([C@H](C[C@@H](O)[C@@H](O)N[*:3])N[*:1])[*:2]; hTyr(3S-OH,4S-OH) = N[C@H](C(=O)O)[C@H](O)[C@@H](O)c1ccc(O)cc1; Pro(3S-OH,4S-Me) = C[C@H]1CN[C@H](C(=O)O)[C@H]1O; Hyp = O=C(O)[C@@H]1C[C@@H](O)CN1

Experiments:
Stability in rat plasma = format: in vitro ADME; conditions: rat plasma, 37° C.
Procedure: (§1) Stock solutions of compound 22 and anidulafungin were prepared in DMSO at a concentration of 1 mg/mL. Plasma samples were prepared by mixing plasma with 10% volume of 1 M sodium phosphate, pH 7.4, to minimize pH fluctuation, and stock solution to produce plasma samples containing approximately 10,000 ng/mL compound 22 or anidulafungin. For the stability experiments in PBS buffer, plasma was replaced with phosphate buffered saline, pH 7.4. The DMSO concentration was 1% in the final incubation. Multiple individual aliquots (0.5 mL each) were prepared, capped, and incubated at 37° C. At each stability time point, the reaction was stopped by removing the sample from the incubator and adding 0.5 mL of acetonitrile containing internal standard. Samples were centrifuged for approximately 5 minutes at 10000 rpm to precipitate the proteins. Stability was measured in five different matrices (i.e. rat plasma, dog plasma, monkey plasma, human plasma, and PBS). An aliquot (100 μL) of supernatant of each sample was assayed by HPLC. The percentage of anidulafungin and compound 22 remaining at each time point was calculated by dividing the peak area ratio at each time point by the peak area ratio at time zero.

[1] = Circulating half-life in chimpanzee; format: in vivo; conditions: in vivo, iv, 1 mg/kg, assays conducted by applicant, read-out: Half-life (converted)
[2] = Stability in phosphate buffered saline (PBS); format: physicochemical; conditions: PBS pH 7.4, 37° C.
Procedure: as §1

[3] = Stability in human plasma; format: in vitro ADME; conditions: human plasma, 37° C.
Procedure: as §1

[4] = Circulating half-life in rat; format: in vivo; conditions: in vivo, assays conducted by applicant, read-out: Half-life (converted)
[5] = Circulating half-life in dog; format: in vivo; conditions: beagle, in vivo, assays conducted by applicant, read-out: Half-life (converted)
[6] = Solubility in aqueous media of varying pH; format: physicochemical; conditions: ambient temperature, compound 22 as acetate salt, salt free equivalent, read-out: Solubility
[7] = Circulating half-life in monkey; format: in vivo; conditions: in vivo, assays conducted by applicant, read-out: Half-life (converted)
Stability in dog plasma = format: in vitro ADME; conditions: dog plasma, 37° C.
Procedure: as §1

[8] = Stability in monkey plasma; format: in vitro ADME; conditions: monkey plasma, 37° C.
Procedure: as §1

[9] = Pharmacokinetics in chimpanzee, IV dose; conditions: female, in vivo, chimpanzees, 1-mg/kg IV 60-minute infusion, mean of 2 chimps
Procedure: Pharmacokinetic studies were performed in six adult female chimpanzees. Two chimpanzees received 1-mg/kg IV dose of compound 22 formulated in 5% dextrose (60-minute infusion). Two chimpanzees received 10-mg/kg oral dose of compound 22 formulated in 5% citric acid (oral bolus). Two chimpanzees received 1-mg/kg IV dose of anidulafungin formulated as package label (5% dextrose, 60-minute infusion). Plasma samples were collected from all chimps for 10 days to 22 days. PK curves are depicted in FIGS. 16A, 16B, and 18. All pharmacokinetic calculations were performed using WinNonlin version 4.1 (Pharsight Corp) by noncompartmental analysis.

[10] = Pharmacokinetics (oral bioavailability) following oral administration in beagle dogs; format: in vivo; design: key to Improvement (ratio of % oral bioavailability to saline): NI = no improvement in oral bioavailability in comparison to saline; conditions: for % BA / Improvement (ratio of % oral bioavailability to saline): oral
Procedure: Echinocandin class compounds were administered to beagle dogs weighing approximately 6-10 kg. Each animal received the appropriate prepared test article in a single oral capsule dose at a target dose level of about 7-10 mg/kg. Immediately after dosing, each animal was offered 20 mL-30 mL of water orally (Groups 1-4) or 30 mL of water orally to assist in swallowing the capsule.
Animals were treated and blood samples were drawn and analyzed as provided in Example 1.
The bioavailability of each oral dose formulation was estimated by comparison to intravenous plasma concentration data in dogs from Example 1. The results provided in Table 3 show the oral bioavailability for the echinocandin class compound in saline (formulation 11), and the improvement over saline with the use of a formulation of the invention.

In the case of `CCCCCOc1ccc(-c2ccc(-c3ccc(C(=O)N[C@H]4C[C@@H](O)[C@@H](O)NC(=O)[C@@H]5[C@@H](O)[C@@H](C)CN5C(=O)[C@H]([C@@H](C)O)NC(=O)[C@H]([C@H](O)[C@@H](O)c5ccc(O)cc5)NC(=O)[C@@H]5C[C@@H](O)CN5C(=O)[C@H]([C@@H](C)O)NC4=O)cc3)cc2)cc1` [Anidulafungin, anidulafungin, reference compound] ({pTerphenylCO(4''-OnC5H11)}-[Orn(4R-OH,5R-OH)]T[Hyp][hTyr(3S-OH,4S-OH)]T[Pro(3S-OH,4S-Me)]; lactam 1-C), the “% remaining” value (Stability in rat plasma; 0 h) is reported as 100%, the “% remaining” value (Stability in rat plasma; 1 h) is reported as 84.3% and the “% remaining” value (Stability in rat plasma; 2 h) is reported as 76.5%. The “% remaining” value (Stability in rat plasma; 4 h) was 45.6%, the “% remaining” value (Stability in rat plasma; 8 h) was 23.2% and the “% remaining” value (Stability in rat plasma; 21 h) was 7.3%. For the same molecule, the “% remaining” value (Stability in rat plasma; 44 h) was 7.4%, the Half-life [1] was 30 h and the “% remaining” value ([2]; 0 h) was 100%. For the same molecule, the “% remaining” value ([2]; 1 h) was 100%, the “% remaining” value ([2]; 2 h) was 97.8% and the “% remaining” value ([2]; 4 h) was 87.4%. For the same molecule, the “% remaining” value ([2]; 8 h) was 86.0%, the “% remaining” value ([2]; 21 h) was 68.9% and the “% remaining” value ([2]; 44 h) was 41.9%. The “% remaining” value ([3]; 0 h) was 100%, the “% remaining” value ([3]; 1 h) was 102% and the “% remaining” value ([3]; 2 h) was 98.0%. The “% remaining” value ([3]; 4 h) was 61.8%, the “% remaining” value ([3]; 8 h) was 72.0% and the “% remaining” value ([3]; 21 h) was 51.2%. The “% remaining” value ([3]; 44 h) was 7.3%, the Half-life [4] was 22 h and the Half-life [5] was 12 h. The solubility ([6]; Sterile Water for injection) was less than 10 µg/mL, the solubility ([6]; aqueous buffer, Acetate buffer (0.01M, pH 4.5)) was less than 10 µg/mL and the solubility ([6]; aqueous buffer, Acetate buffer (0.01M, pH 5.5)) was less than 10 µg/mL. The solubility ([6]; aqueous buffer, Tris buffer (0.01M, pH 8.5)) was less than 10 µg/mL, the solubility ([6]; aqueous with cosolvent or surfactant or cyclodextrin, 90% Water:10% glycerol) was less than 10 µg/mL and the Half-life [7] was 8 h. For the same molecule, the “% remaining” value (Stability in dog plasma; 0 h) was 100%, the “% remaining” value (Stability in dog plasma; 1 h) was 100% and the “% remaining” value (Stability in dog plasma; 2 h) was 94.8%. For the same molecule, the “% remaining” value (Stability in dog plasma; 4 h) was 77.1%, the “% remaining” value (Stability in dog plasma; 8 h) was 81.1% and the “% remaining” value (Stability in dog plasma; 21 h) was 47.2%. The “% remaining” value (Stability in dog plasma; 44 h) was 14.6%, the “% remaining” value ([8]; 0 h) was 100% and the “% remaining” value ([8]; 1 h) was 106%. For the same molecule, the “% remaining” value ([8]; 2 h) was 111%, the “% remaining” value ([8]; 4 h) was 68.1% and the “% remaining” value ([8]; 8 h) was 76.0%. For the same molecule, the “% remaining” value ([8]; 21 h) was 22.4%, the “% remaining” value ([8]; 44 h) was 13.8% and the clearance ([9]; read-out: Clearance (converted)) was 0.417 mL/min/kg. For the same molecule, the Half-life ([9]; read-out: Plasma half-life (IV) (converted)) was 30 h, the Vd ([9]; read-out: Volume of distribution) was 1.1 L/kg and the “% BA in saline” value ([10]; oral about 7-10 mg/kg, formulation 11 (saline)) was 7.80%. For the same molecule, the “% BA” value ([10]; formulation 1) was “(14.3%)”, the “Improvement (ratio of % oral bioavailability to saline)” value ([10]; formulation 1) was 1.8 and the “Improvement (ratio of % oral bioavailability to saline)” value ([10]; formulation 2) was “NI”. For the same molecule, the “% BA” value ([10]; formulation 3) was “(9.80%)”, the “Improvement (ratio of % oral bioavailability to saline)” value ([10]; formulation 3) was 1.3 and the “Improvement (ratio of % oral bioavailability to saline)” value ([10]; formulation 4) was “NI^4”. For the same molecule, the “% BA” value ([10]; formulation 5) was “(16.5%)”, the “Improvement (ratio of % oral bioavailability to saline)” value ([10]; formulation 5) was 2.1 and the “Improvement (ratio of % oral bioavailability to saline)” value ([10]; formulation 6) was “NI”.
